Experimental findings from PubChem BioAssay (NCI) are described below.

Test in all cases: growth of human tumour cells (NCI), 48 h
Test [1] concerns HL-60(TB) leukemia.
Test [2] deals with HCT-15 colon.
Test [3] concerns NCI-H522 lung.
The test system of test [4] is SK-OV-3 ovarian.
In test [5] the test system is LOX IMVI melanoma.
The test system of test [6] is IGROV1 ovarian.
Test [7] has as its system SW-620 colon.
In test [8] the test system is MOLT-4 leukemia.
Test [9] has as its system KM12 colon.
Test [10] concerns ACHN renal.

The structures appear in SMILES notation.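 Cultured in 96-well plates, cells were exposed to test compound for 48 hours across five concentrations. TGI is the concentration that stops growth completely.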 A value given as a limit tells only on which side of the number the result lay.

For `CC1(C)OC(=O)N(c2ccccc2)C12C=Cc1cc([N+](=O)[O-])ccc1O2` (stereo not given), the TGI in [1] is 63.7 µM; in [2], over 100 µM; in [3], over 100 µM; in test [4], 66.4 µM; in test [5], over 100 µM; in [6] it was over 100 µM. Moreover, the TGI is over 100 µM in test [7], 84.9 µM in test [8], over 100 µM in test [9] and over 100 µM in test [10].
Turning to `COC(=O)Nc1nc2ccc(S(=O)(=O)SC)cc2[nH]1`, the TGI in test [1] is 8.11 µM; in [2], 19.4 µM; in test [3] it was over 100 µM; in test [4], 43 µM; in test [5] it was 22.1 µM; in [6], 15.3 µM. Besides, the TGI is 25.2 µM in [7], over 100 µM in test [8], over 100 µM in [9] and 23.9 µM in test [10].
Regarding `COCc1nc2c(OC)c(-c3nc4nc(N5CCN(C)CC5)ccc4[nH]3)cc(OC)c2n1C`, the TGI was 36.2 µM in test [1]; over 100 µM in [2]; 86.4 µM in test [3]; over 100 µM in test [4]; 39.5 µM in test [5]; over 100 µM in [6]. The TGI was over 100 µM in test [7], 49.6 µM in test [8], 61.6 µM in test [9] and 57.4 µM in test [10].
Turning to `CCOC(=O)c1c(N2CCOCC2)[nH]c(=O)c(C(c2c(Cl)cccc2Cl)c2c(O)c(C(=O)OCC)c(N3CCOCC3)[nH]c2=O)c1O`, the TGI in [1] was found to be 4.37 µM; in test [2], 15.6 µM; in [3] it was 3.72 µM; in test [4], 24.9 µM; in [5], 9.08 µM; in test [6], 15 µM. In addition, the TGI in [7] was determined as 3.11 µM; in test [8], 5.51 µM; in test [9], 33.2 µM; in test [10] it was 13 µM.
As to `CCCCCCCCCCCC(=O)OCC(C[As](=O)(O)O)OC(=O)CCCCCCCCCCC` (stereo not given), the TGI in test [1] was over 25 µM; in [2] it was 25.5 µM; in [3] it was 4.33 µM; in test [4] it was 30.1 µM; in [5], 18.3 µM; in [6], 3.5 µM. Also, the TGI in [7] was 26.8 µM; in [8] it was over 41.6 µM; in test [9], 21.6 µM; in [10], 5.04 µM.
With `C[N+]1(C)CCc2cc(O)c(O)cc2C1Cc1ccc(O)c(O)c1` (stereo not given), the TGI in test [1] was 54.8 µM; in test [2], over 100 µM; in test [3] it was 58.4 µM; in [4], over 100 µM; in test [5] it was 81 µM; in test [6], over 100 µM. The TGI was 76.7 µM in test [7], 68.8 µM in test [8], over 100 µM in [9] and over 100 µM in test [10].
In the case of `COc1cc2cc3c4cc(OC)c(OC)cc4cc[n+]3c(C)c2cc1OC` (tested in a mixture with another compound), the TGI in [1], in test [2], in test [3], in test [4], in [5] and in [6] was over 100 µM throughout. For the same compound, the TGI in [7], in test [8], in test [9] and in [10] was over 100 µM throughout.
Take `Cc1ccc2c(c1)CC1(Cc3ccccc3C1=O)C2=O` (stereo not given): the TGI in test [1], in test [2], in test [3], in test [4], in test [5] and in test [6] was over 100 µM each time. Also, the TGI in test [7], in test [8], in [9] and in [10] was over 100 µM throughout.
In the case of `C/C(=N/NC(N)=S)c1ccc[nH]1`, the TGI in test [1], in test [2], in test [3], in test [4], in [5] and in test [6] was over 100 µM each time. The TGI in test [7], in test [8], in test [9] and in [10] was over 100 µM in each case.
As for `CCO/C=N\C1=C(C#N)SC2=N/C(=C\c3ccc(OC)cc3)C(=O)N21`, the TGI in test [1], in test [2], in [3], in test [4], in [5] and in [6] was over 100 µM each time. For the same compound, the TGI in test [7], in test [8], in test [9] and in [10] was over 100 µM in each case.
With `CN(C)CCCN=c1c2ccccc2n(O)c2ccccc12`, the TGI in test [1], in test [2], in test [3], in [4], in [5] and in [6] was over 100 µM throughout. Further, the TGI in test [7], in test [8], in test [9] and in [10] was over 100 µM in each case.
On to `O=C(Nc1nnc(-c2ccc(Cl)cc2)o1)C(SC(=S)N1CCOCC1)c1ccccc1` (stereo not given), for which the TGI in test [1] is 25.7 µM; in test [2], over 100 µM; in test [3], 48.9 µM; in test [4], over 100 µM; in [5] it was 48.2 µM; in [6], over 100 µM. Moreover, the TGI in test [7] is over 100 µM; in test [8] it was over 100 µM; in test [9] it was over 100 µM; in test [10] it was 83.5 µM.
Consider `CN=C(SC)N(C)c1nc(=[N+](C)C)ss1`, for which the TGI in test [1], in test [2], in test [3], in [4], in test [5] and in test [6] was over 100 µM throughout. Further, the TGI in [7], in test [8], in test [9] and in test [10] was over 100 µM throughout.
Turning to `CC(=O)OC1C(Oc2c(C)cc3c(c2O)[C@@H](C)CC[C@@H]3[C@@H](C)CCC=C(C)C)OCC(O)C1O` (stereo not given in full), the TGI in test [1] amounted to 41.7 µM; in [2], 34.1 µM; in [3] it was 36.4 µM; in test [4], 38.1 µM; in test [5], 32.5 µM; in [6], 37.9 µM. Also, the TGI in test [7] came out at 33.8 µM; in test [8] it was 49.7 µM; in test [9], 31.2 µM; in test [10] it was 35.5 µM.
For the compound `CC1(C)C[C@@H]2C1CCC1(C)CC2(O)CC[C@H]1O` (stereo not given in full), the TGI in test [1], in test [2], in test [3], in test [4], in test [5] and in test [6] was over 100 µM in each case. In addition, the TGI in [7], in test [8], in test [9] and in test [10] was over 100 µM throughout.
For the compound `COc1cc(-c2nc3ccccn3c2/N=C/c2cc(Br)cc(Br)c2O)ccc1O`, the TGI in test [1] came to 46.4 µM; in test [2], 44.8 µM; in test [3] it was 58.2 µM; in [4], 59 µM; in [5], 64.9 µM; in [6], 49.9 µM. Further, the TGI in test [7] is 71.2 µM; in test [8], 73.7 µM; in test [9] it was 67.2 µM; in test [10] it was over 100 µM.
Consider `CN(C)CC1CCCC(CN(C)C)C1OC(=O)c1ccccc1` (stereo not given), for which the TGI in [1], in test [2], in test [3], in test [4], in test [5] and in test [6] was over 100 µM in each case. The TGI in test [7], in [8], in test [9] and in [10] was over 100 µM each time.
Turning to `CC(CC[C@@]1(C)C(=O)CCC2O[C@]21C)[C@H]1C[C@@H](c2ccoc2)OC1=O` (stereo not given in full), the TGI in test [1] was 47.6 µM; in test [2] it was over 100 µM; in test [3] it was 22.2 µM; in test [4], over 100 µM; in test [5] it was 48.2 µM; in test [6], over 100 µM. The TGI in test [7] was 91.8 µM; in [8] it was 84.7 µM; in test [9], over 100 µM; in test [10], 48 µM.
In the case of `Cc1ccc(S(=O)(=O)N/N=C2/CCCOC2)cc1`, the TGI in [1], in test [2], in test [3], in test [4], in test [5] and in test [6] was over 100 µM each time. For the same compound, the TGI in [7], in test [8], in test [9] and in [10] was over 100 µM in each case.
As for `O=C(NCP(=O)(c1ccccc1)c1ccccc1)OCc1ccccc1`, the TGI in [1], in [2], in [3], in test [4], in test [5] and in test [6] was over 100 µM in each case. Besides, the TGI in test [7], in test [8], in [9] and in test [10] was over 100 µM in each case.
With `O=C(c1ccco1)N(C(=S)OCCOc1ccccc1)c1ccccc1`, the TGI in [1] was 47.3 µM; in test [2], 45.3 µM; in test [3], 40.5 µM; in [4] it was 55.3 µM; in test [5] it was 34.5 µM; in test [6], 36.9 µM. For the same compound, the TGI in test [7] is 41.8 µM; in [8] it was 55.3 µM; in [9], 46.2 µM; in test [10], 53.4 µM.
For `C[Si](C)(C)OC1CC(=O)OC1n1cc(F)c(=O)[nH]c1=O` (stereo not given), the TGI is over 100 µM in test [1]; over 54 µM in [2]; over 100 µM in test [3]; over 100 µM in test [4]; 32.5 µM in test [5]; over 100 µM in [6]. Further, the TGI in test [7] is over 56 µM; in test [8], over 100 µM; in test [9], over 100 µM; in test [10], over 100 µM.
In the case of `COC(=O)c1cc2c(cc1CC(Cc1ccc3c(c1)CCCC3)C(=O)OC)CCCC2` (stereo not given), the TGI was 29.7 µM in test [1]; over 100 µM in test [2]; over 100 µM in test [3]; over 100 µM in test [4]; over 100 µM in test [5]; over 100 µM in [6]. The TGI in [7], in test [8], in [9] and in test [10] was over 100 µM in each case.
Regarding `CCN1CCN(c2nc3ccccc3c3c2CCOc2ccccc2-3)CC1`, the TGI in test [1] is over 77.3 µM; in [2], 40.1 µM; in [3] it was over 62.3 µM; in test [4], over 70.7 µM; in test [5] it was 34.1 µM; in [6], over 58.3 µM. For the same compound, the TGI in test [7] was over 67.5 µM; in test [8], over 56 µM; in test [9], over 56 µM; in test [10] it was over 100 µM.
With `CCN(CC)C1CC(O[C@H]2C[C@](O)(C(=O)CO)Cc3c(O)c4c(c(O)c32)C(=O)c2c(OC)cccc2C4=O)OC(C)C1O` (stereo not given in full), the TGI in [1] was determined as 0.533 µM; in [2], 3.54 µM; in test [3] it was 0.121 µM; in [4] it was 9.62 µM; in test [5] it was 0.439 µM; in [6], 4.66 µM. In addition, the TGI in test [7] was 0.328 µM; in test [8] it was 1.17 µM; in [9], 0.457 µM; in [10], 0.208 µM.
Regarding `O=Cc1ccccc1COC(=O)c1cc(C(=O)OCc2ccccc2C=O)c(C(=O)OCc2ccccc2C=O)cc1C(=O)OCc1ccccc1C=O`, the TGI in [1], in test [2], in [3], in [4], in test [5] and in test [6] was over 100 µM in each case. In addition, the TGI in test [7], in [8], in [9] and in test [10] was over 100 µM in each case.
